# From US20200283728A1, “MODIFIED T CELLS AND USES THEREOF” (MUSC FOUNDATION FOR RESEARCH DEVELOPMENT, priority 2017, published 2020)
# Experiments:
# Assay type in all cases: cell-based, mouse
# [1] = system: ICOS-stimulated Th17 cells; assay: Growth and survival of ICOS-stimulated Th17 cells expanded with inhibitors; details: in vitro expansion, day 7
# Experimental: Expansion of Th17 cells with Wnt/β-catenin and PI3K inhibitors in vitro: […] splenocytes were activated with irradiated (10Gy) C57BL/6 splenocytes pulsed with […] peptide (1 μM) added at a 5:1 ratio in 24-well plates (1 mL media containing 1.5×10^6 cells/well). […] splenocytes were co-stimulated with soluble ICOS agonist (Clone 398.4A, BioLegend) and polarized toward Th17 phenotype as describe above. For in vitro expansion from day 0 of culture 10 μM Ly294002 (Cayman Chemical) or 10 μM CAL-101 (Selleckchem) and/or 60 μM indomethacin (Sigma-Aldrich) was added. Also dimethylosulfoxide 0.01% (Sigma-Aldrich) was added as a control. Th17 cultures were also supplemented with hrIL-2 (100 IU/mL) and rmIL-23 ([…]; R&D). Medium, including cytokines and inhibitors was refreshed every 2-3 days.
# [2] = system: ICOS-activated Th17 cells; assay: Memory and regulatory phenotype of ICOS-stimulated Th17 cells expanded with inhibitors (flow cytometry); details: day 8 in vitro
# Experimental: Expansion of Th17 cells with Wnt/β-catenin and PI3K inhibitors in vitro: TRP-1 splenocytes were activated with irradiated (10Gy) C57BL/6 splenocytes pulsed with TRP-1 peptide (1 μM) added at a 5:1 ratio in 24-well plates (1 mL media containing 1.5×10^6 cells/well). TRP-1 splenocytes were co-stimulated with soluble ICOS agonist (Clone 398.4A, BioLegend) and polarized toward Th17 phenotype as describe above. For in vitro expansion from day 0 of culture 10 μM Ly294002 (Cayman Chemical) or 10 μM CAL-101 (Selleckchem) and/or 60 μM indomethacin (Sigma-Aldrich) was added. Also dimethylosulfoxide 0.01% (Sigma-Aldrich) was added as a control. Th17 cultures were also supplemented with hrIL-2 (100 IU/mL) and rmIL-23 ([…]; R&D). Medium, including cytokines and inhibitors was refreshed every 2-3 days.
# Surface staining of Th17 cells was performed with anti-CD4-APCCy7, anti-Vβ14-FITC (BD Biosciences) anti-CD62L-APC, anti-CD44-PerCPCy5.5, anti-CCR6-PE, anti-CD69-PECy7, anti-CCR7-PE, anti-CD27-PE, anti-CD28-PerCPCy5.5, anti-ICOS-PE and anti-CD25-PECy7/FITC (BioLegend) and viability stain (Invitrogen) on day 8. For all intracellular staining of cytokines (anti-IL-17 PerCPCy5.5, anti-IFN-γ-v450, anti-IL-2-FITC, anti-IL-21-APC, anti-IL-22-PE, anti-TNF-α-FITC; BioLegend) and transcription factors (anti-RORγt-APC, anti-cMaf-PerCPCy5.5, anti-STAT-3-PE, anti-FoxP3-FITC/PE, anti-T-bet-v450; eBiosciences), cells were stimulated for 4-5 h with 50 ng/mL PMA and 750 ng/mL ionomycin (Sigma-Aldrich). Additional antibodies used include: CD127-PECy7 clone A019D5, CD25-APCCy7 clone BC96, CD4-APCCy7 OKT4, CD45RO-APC clone UCHL1, CD62L-FITC clone DREG-56, CD8-PerCPCy5.5 clone SKI, TIM3-PE clone F38-2E2 (biolegend); CCR7-PECy7 clone CCR7, CD8-V450 clone RPA-T8, PD1-FITC clone M1H4, (BD Biosciences). […] Data were analyzed with FlowJo software (TreeStar). […]
# Wnt/β-catenin pathway = Wnt/β-catenin pathway expression in Th17 cells (Western blot, real-time PCR)
# Experimental: Total RNA isolation was performed using the Trizol method (Life Technologies) according to the manufacturer's procedure. RNA quantity and purity was assessed using a NanoDrop ND-1000. 1 μg total RNA was transcribed with Transcriptor First Strand cDNA Synthesis Kit (Roche). qReal-time PCR was performed on LightCycler480 machine following manufacturer's protocols (Roche). Probes utilized include Rorc, IL-17, Cmaf IL-21, Cpt-1a, Tcf-7, Lef-1, Cnnb1. All probes are commercially available (ABI). Relative gene expression was determined by the comparative CT method (45). β-actin was used as housekeeping gene.
# Nuclear and cytoplasmic protein were isolated by lysis using Nuclear and Cytoplasmic Extraction Reagent with Protease&Phosphatase Inhibitor Cocktail (ThermoScientific). Protein concentration was quantified using […] (ThermoScientific) according to the manufacturer's instructions. 10 to 30 μg of total protein was separated on a Mini-PROTEAN TGX, Any kD™ gel, followed by transfer onto PVDF membrane (Bio-Rad). The membranes were blocked with 5% BSA in TBS buffer containing 0.5% Tween20. The membranes were then incubated overnight at 4° C. with the primary antibodies to β-catenin (BD Bioscience), p110δ, Tcf7 (Abcam), RORγt (Affymetrix) phospho-Akt, total-Akt, STAT-3, Histone-3, Lef1 (abcam), and GAPDH (Cell Signaling) at the concentration recommended by manufactures. Subsequently, membranes were washed and incubated for 1 h at room temperature with (HRP)-conjugated goat antibodies to mouse or rabbit IgG (Cell Signaling). For detection of protein, chemiluminescence method was performed using Western ECL Blotting Substrate (Bio-Rad) followed by X-ray film-based imaging method (ThermoScientific). Quantification of optical density performed using Fiji analysis software (NIH).
smiles,measurement,setting,value
"COc1ccc2c(c1)c(CC(=O)O)c(C)n2C(=O)c1ccc(Cl)cc1 [Indo, indomethacin]",Th17 cell growth or survival,[1],did not impair
same,central memory phenotype (CD44^highCD62L^high),[2],did not impact their memory phenotype
same,nuclear β-catenin after re-stimulation,Wnt/β-catenin pathway; antigen specific re-stimulation in vitro,re-expressed β-catenin to the level observed in un-treated ICOS stimulated Th17 cells
same,nuclear β-catenin expression,"Wnt/β-catenin pathway; day 8, before re-stimulation / transfer",abolish β-catenin translocation to the nucleus
